Results published in a melting point compilation (Tetko et al.).

SMILES	melting point [°C]
CC1CNc2ccccc2N(Cc2ccccc2)C1=O (configuration not stated)	107 to 109
CCSc1ccccc1C(=O)O	135 to 137
O=C(O)c1ccc(C(F)F)cc1	205 to 207
COC(=O)NS(=O)(=O)Cl	69 to 71
Cc1cc(N)ccc1OCCN1CCCC1	112 to 114
O=C(O)C(CS(=O)(=O)c1ccccc1)N1CCOCC1 (configuration not stated)	190 to 192
Cc1cc(Br)cc2c1NC(=O)C2	224 to 226
Cc1nc(Cl)cc(-c2cccnc2)n1	67 to 69
Cc1ccc(N(C(=O)CCCl)C2C=CS(=O)(=O)C2)cc1C (configuration not stated)	122 to 124
O=C(O)Cc1coc(-c2ccccc2)n1	148 to 150
COCCOCC(=O)Nc1cccc(N)c1C	82 to 84
Nc1nncc(-c2ccccc2)n1	235 to 237
CC(C)(C)Sc1ccc(C(N)=S)cc1	163 to 165
NS(=O)(=O)Cc1ccccc1Br	118 to 120
Nc1nnc(-c2ccc([N+](=O)[O-])o2)o1	259 to 261
O=C(O)c1cc(-c2ccccc2)nc2onc(C3CC3)c12	199 to 201
Cc1oc2ccccc2c1C=O	69 to 71
Nc1ccn(-c2cccc(C(F)(F)F)c2)n1	80 to 82
O=S(=O)(F)c1ccc(Br)cn1	92 to 94
Cc1ncc(C=CC(=O)O)s1	194 to 196
NNc1ccc(S(=O)(=O)Nc2ccccn2)cn1	218 to 220
OC1(Cc2cccc(F)c2)CCNC1 (configuration not stated)	59 to 61
O=C(CCl)NCc1ccc(C(=O)N2CCOCC2)cc1	142 to 144
Clc1ccc(CBr)c2ncccc12	94 to 96

SMILES	melting point [°C]
Nc1ccc(S(=O)(=O)N2CCOCC2)cc1N	169 to 171
CN(C)S(=O)(=O)c1cccc(C(=O)NN)c1	149 to 151
COCCNC(N)=S	118 to 120
COc1cc(OC)cc(N2CCC(N)C2=O)c1 (configuration not stated)	88 to 90
O=C(O)c1cc2c([nH]c1=O)CCCCC2	247 to 249
CS(=O)(=O)NCCc1ccc(C(=O)CCl)s1	110 to 112
N=C1N=C2C=CC(Br)=CN2Cc2ccccc21	178 to 180
N#CCC(=O)c1ccc(F)c(Cl)c1	59 to 61
O=C(O)CNC(=O)Nc1ccc(Br)cc1	192 to 194
C#CCNC(=O)Nc1ccc(C)cc1	174 to 176
COc1cccc(COc2cccc(Cl)c2C=O)c1	64 to 66
O=C(O)c1ccnc(Br)c1[N+](=O)[O-]	220 to 222
Cc1cc(N)ccc1S(C)(=O)=O	144 to 146
N#Cc1cc(Cl)ccc1N=C=O	71 to 75
N#Cc1cnn(-c2nccs2)c1N	165 to 167
Cc1cc(C)cc(Nc2nnc(SC(C)C(=O)O)s2)c1 (configuration not stated)	127 to 129
O=C(O)/C=C/c1cccc(Cl)c1Cl	233 to 235
O=C1Cc2ccccc2C(=O)N1	190 to 192
O=S(=O)(Cl)C12CC3CC(CC(C3)C1)C2	121 to 123
O=C1CSC(NC2CCCC2)=N1	110 to 112
COc1cc(C)c(C=O)cc1OC	70 to 72
Nc1cc(F)cc(C(=O)O)c1F	161 to 163
Cn1c(S)nnc1-c1cncc(N)c1	206 to 208
CC(C)Oc1ccc(S(N)(=O)=O)c2ccccc12	95 to 97

SMILES	melting point [°C]
C/C(Cn1nc(C)cc1C)=N\O	114 to 116
Cc1c(N)cccc1N1CCOC1=O	140 to 142
COc1cc2ncc(C(=O)O)c(O)c2cc1OC	293 to 295
NC(=S)Cc1cn2ccccc2n1	144 to 146
CCc1ccc2c(c1)C(=O)C(=O)N2CC(=O)O	166 to 168
NN1C(=O)NC2(CCCCC2)C1=O	164 to 166
NCc1nc(-c2ccsc2)no1	134 to 136
Nc1ccc(C(=O)O)nc1Br	206 to 208
O=C(Cn1ccnc1)c1ccc(F)cc1	150 to 152
N#Cc1cc(Cl)ccc1CS(=O)(=O)Cl	106 to 108
Cc1ccc(-c2ccccc2C(=O)O)cc1	146 to 148
CCOc1ccc(S(=O)(=O)Nc2ccc(C(=O)O)cc2)cc1	226 to 228
O=S(=O)(NC1CCNCC1)c1ccc(Cl)cc1	189 to 191
CCn1cnnc1Nc1ccccc1	125 to 127
CC(NC(=O)CNC(=O)CCl)c1ccc(F)cc1 (configuration not stated)	137 to 139
COc1ccccc1-c1csc(=O)[nH]1	127 to 129
Cc1cc(=O)[nH]cn1	138 to 140
O=C(O)c1ccc(NC2=NS(=O)(=O)c3ccccc32)cc1	369 to 371
CS(=O)(=O)c1cc([N+](=O)[O-])c(O)c([N+](=O)[O-])c1	221 to 223
CCOC(=O)C(=O)CC(=O)c1cc(Cl)ccc1Cl	76 to 78
Cc1cccc(Cn2cccc(C(=O)O)c2=O)c1	189 to 191
O=C(O)C1CCCCN1C(=O)c1ccccc1 (configuration not stated)	128 to 130
O=C(C1Cc2ccccc2CN1)N1CCCC1 (configuration not stated)	88 to 90
Nc1ccc(OCc2ccccn2)c(Cl)c1	91 to 93
